Measurements as given in patent publication US20220213138A1, “CYCLIC COMPOUNDS AND METHODS OF MAKING AND USING” (UNIVERSITY OF HONG KONG, priority 2019, published 2022).
Like-named read-outs stand apart in the source and are kept apart here. Positions of bridges follow the written chain, without caps; N, C: chain ends. No end group written: not given here.

How the values were obtained:
[1] = crosslinker bond
[2] = tested on: poorly differentiated colon carcinoma cells; settings: Kelly, et al., Neoplasia 2003; cited from earlier work
Caco2 cells = assay: Fluorescence confocal imaging analysis of Caco2 cells; type: cell-based; settings: 1 μL 10 mM peptide in 1 mL DMEM with 10% FBS, 2 hours at 37° C.
Protocol: Caco2 cell line was provided by Prof. Jiang Xia (CUHK). A431 and HT116 cell lines were from Prof. Chiming Che (HKU). Caco2, A431 cells were cultured in DMEM supplemented with 10% FBS. HT116 cells were cultured in RPMI 1640 medium supplemented with 10% FBS. All cells were cultured in a humidified incubator at 37° C. with 5% CO2 supplemented. Cell culture medium and FBS were purchased from Gibco. Hoechst 33342 and DiI were purchased from Beyotime Biotechnology. Flow cytometry tubes were purchased from BD pharmacology.
Caco2 cells were cultured with the confluence of 60% in the 35 mm glass-bottom dish overnight. 1 mL fresh DMEM with 10% FBS was added to the dish. 1 μL 10 mM cyclic peptide (Ac-CPIEDRPMK-CONH2)-Fluorescein (cCK9′-F) (SEQ ID NO:27) in DMSO was added into the medium for 2 hours at 37° C. After two hours' incubation, the supernatant was discarded and the cells were washed with PBS for three times. The cells were replenished with PBS. Hoechst 33342 (final concentration: 2.5 μg/mL) and DiI (final concentration: 5 μM) were added into PBS for 10 min at room temperature. The supernatant was discarded. The cells were washed with PBS for three times and replenished with 3% polyaldehyde for imaging. All images were captured and processed via Leica Application Suit X at ×63 oil objective (Leica).

[3] = crosslinker bond, 24-membered ring, OPA, then DMAC, PBS pH 7.4/DMSO, 2 steps
[4] = crosslinker bond, 21-membered ring, OPA, then DMAC, PBS pH 7.4/DMSO, 2 steps
[5] = 21-membered ring, OPA, PBS pH 7.4/DMSO
[6] = 24-membered ring, OPA, PBS pH 7.4/DMSO
[7] = crosslinker bond, 27-membered ring, OPA, then DMAC, PBS pH 7.4/DMSO, 2 steps
[8] = 27-membered ring, OPA, PBS pH 7.4/DMSO

## cyclo-(Ac-CDWLPK-CONH2)-DMAC
[3]
  ring closure, yield after HPLC: 31.9%

## cyclo-(Ac-AKVTMTCSAS-CONH2)-DMAC
[3]
  ring closure, yield after HPLC: 32%

## cyclo-(Ac-ENPECILDKHVQRVM-CONH2)-DMAC
[4]
  ring closure, yield after HPLC: 35%

## Phallodin analog (cyclo-(Dap-Ala-Hyp-Cys-(D)thr-Ala-Glu))
[1]; 15-membered ring
  ring closure, conversion: 86.4%

## NH2-AAACF-CONH2
[1]; 14-membered ring, OPA
  ring closure, conversion: 98%

## cyclo-(CNSTKNLTFAMRSSGDYGEV)
Amide bond, 60-membered ring, NaNO2, MPAA, TCEP (NCL), 6 M Gn.HCl/0.2 M phosphate buffer, 0.37 mM
  ring closure, yield after HPLC: 31%
[1]; [5]
  ring closure, conversion: 89.2%

## Ac-AKVTMTCSAS-CONH2
[1]; [6]
  ring closure, conversion: 99%

## cyclo-(Ac-KGEAFQC-CONH2)-DMAC
[7]
  ring closure, yield after HPLC: 36.6%

## Ac-KAAAAACF-CONH2
[1]; 27-membered ring, OPA
  ring closure, conversion: 98%

## Ac-KAAACF-CONH2
[1]; 21-membered ring, OPA
  ring closure, conversion: 98%

## bicyclo-(CSSLDEPGRGGFSSESKV)
[1]; 15-membered ring, OPA
  ring closure, conversion: 98%

## bicyclo-(CSQGTFTSDYSKYLDSRRAQ)-DMAC
Crosslinker bond, 36-membered ring, OPA, then DMAC, PBS pH 7.4/DMSO, 2 steps
  ring closure, yield after HPLC: 65%

## cyclo-(Ac-KAAAACH-CONH2)-DMAC
Crosslinker bond, 24-membered ring, OPA, then DMAC, PBS pH 7.4/DMSO, 0.53 mM, 2 steps
  ring closure, yield after HPLC: 34%

## cyclo-(Ac-GAQCAFLK-CONH2)-DMAC
[4]
  ring closure, yield after HPLC: 38%

## Ac-KGEAFQC-CONH2
[1]; [8]
  ring closure, conversion: 90.9%

## Ac-ENPECILDKHVQRVM-CONH2
[1]; 21-membered ring, OPA
  ring closure, conversion: 98%
[1]; [5]
  ring closure, conversion: 93.6%

## cyclo-(CPIEDRPMC) (disulfide 1-9 (inferred)) [CK-9]
[2]
  cell targeting: specifically target poorly differentiated colon carcinoma cells

## cyclo-(Ac-ACFALPKG-CONH2)-DMAC
[3]
  ring closure, yield after HPLC: 48%

## cyclo-(Ac—NYRWRCKN-CONH2)-DMAC
Crosslinker bond, 12-membered ring, OPA, then DMAC, PBS pH 7.4/DMSO, 2 steps
  ring closure, yield after HPLC: 32%

## Ac-GAQCAFLK-CONH2
[1]; [5]
  ring closure, conversion: 83.3%

## bicyclo-(CSQGTFTSDYSKYLDSRRAQ)
[1]; 36-membered ring, OPA
  ring closure, conversion: 94%

## Ac-KAAAAACH-CONH2
[1]; [8]
  ring closure, conversion: 98%

## Ac-ACFALPKG-CONH2
[1]; [6]
  ring closure, conversion: 92.5%

## Cyclo-(Ac-CPIEDRPMK-CONH2)-Fluorescein (Ac-CPIEDRPMK-NH2; linker (positions not given here) via OPA; also: fluorescein conjugate, site not given here) [cCK9′-F]
Caco2 cells
  imaging overlap with cell membrane dye (DiI): overlapped very well with cell membrane dye (DiI)

## Ac-CDWLPK-CONH2
[1]; [6]
  ring closure, conversion: 89.1%

## Ac-CHHALTHAK-CONH2
[1]; 33-membered ring, OPA
  ring closure, conversion: 98%

## bicyclo-(CNSTKNLTFAMRSSGDYGEV)
[1]; 21-membered ring, OPA
  ring closure, conversion: 90%

## NH2-AAAAACF-CONH2
[1]; 20-membered ring, OPA
  ring closure, conversion: 98%

## Ac-KAAAACF-CONH2
[1]; 24-membered ring, OPA
  ring closure, conversion: 93%

## Ac-KAAAACH-CONH2
[1]; 24-membered ring, OPA, PBS pH 7.4/DMSO, 0.53 mM
  ring closure, conversion: 92%

## bicyclo-(CSSLDEPGRGGFSSESKV)-DMAC
Crosslinker bond, 15-membered ring, OPA, then DMAC, PBS pH 7.4/DMSO, 2 steps
  ring closure, yield after HPLC: 43%

## bicyclo-(CNSTKNLTFAMRSSGDYGEV)-DMAC
[4]
  ring closure, yield after HPLC: 69%

## cyclo-(CSSLDEPGRGGFSSESKV)
Amide bond, 54-membered ring, NaNO2, MPAA, TCEP (NCL), 6 M Gn.HCl/0.2 M phosphate buffer, 0.14 mM
  ring closure, yield after HPLC: 68.8%
[1]; 15-membered ring, OPA, PBS pH 7.4/DMSO
  ring closure, conversion: 86.9%

## bicyclo-(Dap-A-Hyp-C-t-A-E)-DMAC
Crosslinker bond, 15-membered ring, 2 steps
  ring closure, yield after HPLC: 65%

## Ac-KAAACH-CONH2
[1]; [5]
  ring closure, conversion: 98%

## NH2-AAAACF-CONH2
[1]; 17-membered ring, OPA
  ring closure, conversion: 96%

## Ac-CAHNLTHAK-CONH2
[1]; 33-membered ring, OPA
  ring closure, conversion: 98%

## cyclo-(Ac-KAAACH-CONH2)-DMAC
[4]
  ring closure, yield after HPLC: 47.3%

## Ac-NYRWRCKN-CONH2
[1]; 12-membered ring, OPA, PBS pH 7.4/DMSO
  ring closure, conversion: 98%

## cyclo-(Ac-KAAAAACH-CONH2)-DMAC
[7]
  ring closure, yield after HPLC: 52.2%

## cyclo-(CSQGTFTSDYSKYLDSRRAQ)
Amide bond, 60-membered ring, NaNO2, MPAA, TCEP (NCL), 6 M Gn.HCl/0.2 M phosphate buffer, 0.2 mM
  ring closure, yield after HPLC: 71.7%
[1]; 36-membered ring, OPA, PBS pH 7.4/DMSO
  ring closure, conversion: 71.4%

## Ac-KAAAAAACF-CONH2
[1]; 30-membered ring, OPA
  ring closure, conversion: 98%
